Assay results published in patent US20260347338A1, “PYRIMIDINE/PYRIDINE DERIVATIVES OR SALTS THEREOF AND PHARMACEUTICAL COMPOSITIONS COMPRISING THE SAME” (YUHAN CORPORATION, priority 2023, published 2026).
Structures can show the parent of a compound that is named as a salt.

What follows are compounds tested against T1, human recombinant HPK1 (Homo sapiens, UniProt Q92918) (assay: Inhibitory activity against human recombinant HPK1 (TR-FRET)). Settings: ULight-p70S6K peptide, ATP at Km, room temperature, 1 hour, 0.32 to 1000 nM compound.
T1 construct: purchased BPS Bioscience
T1 sequence (Q92918 whole entry): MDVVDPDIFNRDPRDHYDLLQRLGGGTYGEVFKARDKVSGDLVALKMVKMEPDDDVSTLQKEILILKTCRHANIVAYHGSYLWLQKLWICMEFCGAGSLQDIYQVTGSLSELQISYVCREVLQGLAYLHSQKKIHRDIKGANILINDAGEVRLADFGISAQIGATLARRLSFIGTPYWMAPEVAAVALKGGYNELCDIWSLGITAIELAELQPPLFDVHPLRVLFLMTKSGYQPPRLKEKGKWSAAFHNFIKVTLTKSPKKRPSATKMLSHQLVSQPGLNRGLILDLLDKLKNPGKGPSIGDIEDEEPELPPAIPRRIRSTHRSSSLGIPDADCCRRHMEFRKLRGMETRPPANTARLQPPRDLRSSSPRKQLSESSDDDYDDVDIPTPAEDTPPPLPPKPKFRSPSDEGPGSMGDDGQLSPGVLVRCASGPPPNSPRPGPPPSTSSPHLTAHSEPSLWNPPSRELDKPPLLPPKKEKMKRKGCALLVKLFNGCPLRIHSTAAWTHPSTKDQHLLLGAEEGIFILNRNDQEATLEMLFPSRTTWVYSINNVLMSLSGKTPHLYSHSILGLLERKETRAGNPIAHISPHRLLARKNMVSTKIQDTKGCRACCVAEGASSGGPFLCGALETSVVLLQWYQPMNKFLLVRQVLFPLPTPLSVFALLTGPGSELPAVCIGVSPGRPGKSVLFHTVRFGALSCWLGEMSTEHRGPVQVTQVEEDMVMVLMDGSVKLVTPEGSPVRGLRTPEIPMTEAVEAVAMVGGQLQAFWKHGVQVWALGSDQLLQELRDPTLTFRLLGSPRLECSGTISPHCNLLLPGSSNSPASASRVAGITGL
Assay type: biochemical
Outline: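 Recombinant human HPK1 with ULight-p70S6K peptide and ATP at Km, 1 h at room temperature in HEPES pH 7.4 buffer with Mg2+, Mn2+, EGTA, DTT; compounds 0.32–1000 nM final. EDTA stop, Eu-anti-phosphopeptide TR-FRET read (665 nm); IC50 from % inhibition versus DMSO, binned A–D at 10, 50, 100 nM.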

| IC50 | Compound |
| --- | --- |
| ≤ 10 nM | COc1cccc(F)c1-c1nc(Nc2cc(N3CCC[C@H](O)C3)c(-c3cnn(C(F)F)c3)cn2)ccc1C(N)=O [Example 142, 6-((5-(1-(difluoromethyl)-1H-pyrazol-4-yl)-4-((S)-3-hydroxypiperidin-1-yl)pyridin-2-yl)amino)-2-(2-fluoro-6-methoxyphenyl)nicotinamide] |
| ≤ 10 nM | COc1cccc(F)c1-c1nccc(Nc2cc(N3CCC4(CCN(C)C4)CC3)c(-c3cnn(C4CCOCC4)c3)cn2)n1 [Example 117, 2-(2-fluoro-6-methoxyphenyl)-N-(4-(2-methyl-2,8-diazaspiro[4.5]decan-8-yl)-5-(1-(tetrahydro-2H-pyran-4-yl)-1H-pyrazol-4-yl)pyridin-2-yl)pyrimidin-4-amine] |
| ≤ 10 nM | COc1cccc(F)c1-c1nccc(Nc2cc(N3CC[C@@H](N)[C@H](C)C3)c(-c3cnn(C(F)F)c3)cn2)n1 [Example 268, N-(4-((3R,4R)-4-amino-3-methylpiperidin-1-yl)-5-(1-(difluoromethyl)-1H-pyrazol-4-yl)pyridin-2-yl)-2-(2-fluoro-6-methoxyphenyl)pyrimidin-4-amine hydrochloride] |
| 10 to 50 nM | OCc1csc(-c2nccc(Nc3cc(N4CCC[C@H](O)C4)c(-c4cnn(C5CCOCC5)c4)cn3)n2)c1 [Example 21, (S)-1-(2-((2-(4-(hydroxymethyl)thiophen-2-yl)pyrimidin-4-yl)amino)-5-(1-(tetrahydro-2H-pyran-4-yl)-1H-pyrazol-4-yl)pyridin-4-yl)piperidin-3-ol] |
| ≤ 10 nM | COc1cccc(F)c1-c1nc(Nc2cc(N3CCC[C@H](N)C3)c(-c3cnn(CC4CC4)c3)cn2)ccc1C#N [Example 330, 6-((4-((S)-3-aminopiperidin-1-yl)-5-(1-(cyclopropylmethyl)-1H-pyrazol-4-yl)pyridin-2-yl)amino)-2-(2-fluoro-6-methoxyphenyl)nicotinonitrile hydrochloride] |
| ≤ 10 nM | COCC(C)(C)n1cc(-c2cnc(Nc3ccnc(-c4c(F)cccc4OC)n3)cc2N2CCC[C@H](N)C2)cn1 [Example 244, (S)-N-(4-(3-aminopiperidin-1-yl)-5-(1-(1-methoxy-2-methylpropan-2-yl)-1H-pyrazol-4-yl)pyridin-2-yl)-2-(2-fluoro-6-methoxyphenyl)pyrimidin-4-amine hydrochloride] |
| 10 to 50 nM | Cc1cncc(-c2nccc(Nc3cc(N4CCC[C@H](O)C4)c(C(=O)C4CC4)cn3)n2)c1 [Example 1, (S)-cyclopropyl(4-(3-hydroxypiperidin-1-yl)-6-((2-(5-methylpyridin-3-yl)pyrimidin-4-yl)amino)pyridin-3-yl)methanone] |
| ≤ 10 nM | COc1cccc(F)c1-c1nccc(Nc2cc(N3CCC(F)(CN(C)C)CC3)c(-c3cnn(C4CCOCC4)c3)cn2)n1 [Example 46, N-(4-(4-((dimethylamino)methyl)-4-fluoropiperidin-1-yl)-5-(1-(tetrahydro-2H-pyran-4-yl)-1H-pyrazol-4-yl)pyridin-2-yl)-2-(2-fluoro-6-methoxyphenyl)pyrimidin-4-amine] |
| ≤ 10 nM | COc1cc(F)cc(F)c1-c1nc(Nc2cc(N3CCC[C@H](O)C3)c(-c3cnn(C4CCOCC4)c3)cn2)ccc1[N+](=O)[O-] [Example 224, (3S)-1-(2-((6-(2,4-difluoro-6-methoxyphenyl)-5-nitropyridin-2-yl)amino)-5-(1-(tetrahydro-2H-pyran-4-yl)-1H-pyrazol-4-yl)pyridin-4-yl)piperidin-3-ol] |
| ≤ 10 nM | COc1cccc(F)c1-c1nccc(Nc2cc(N3C[C@@H](N)C[C@H](F)C3)c(-c3cnn(CC(F)(F)F)c3)cn2)n1 [Example 332, N-(4-((3S,5S)-3-amino-5-fluoropiperidin-1-yl)-5-(1-(2,2,2-trifluoroethyl)-1H-pyrazol-4-yl)pyridin-2-yl)-2-(2-fluoro-6-methoxyphenyl)pyrimidin-4-amine hydrochloride] |
| ≤ 10 nM | (S)-N-(4-(3-aminopiperidin-1-yl)-5-((tetrahydro-2H-pyran-4-yl)ethynyl)pyridin-2-yl)-2-(7-fluoroquinoxalin-6-yl)pyrimidin-4-amine hydrochloride [Example 90] |
| ≤ 10 nM | N[C@H]1CCCN(c2cc(Nc3ccnc(-c4c(F)cccc4CO)n3)ncc2C#Cc2cnn(C(F)F)c2)C1 [Example 243, (S)-(2-(4-((4-(3-aminopiperidin-1-yl)-5-((1-(difluoromethyl)-1H-pyrazol-4-yl)ethynyl)pyridin-2-yl)amino)pyrimidin-2-yl)-3-fluorophenyl)methanol hydrochloride] |
| ≤ 10 nM | COC(=O)c1ccc(Nc2cc(N3CCC[C@H](O)C3)c(-c3cnn(C4CCOCC4)c3)cn2)nc1-c1c(F)cccc1OC [Example 60, methyl 2-(2-fluoro-6-methoxyphenyl)-6-((4-((S)-3-hydroxypiperidin-1-yl)-5-(1-(tetrahydro-2H-pyran-4-yl)-1H-pyrazol-4-yl)pyridin-2-yl)amino)nicotinate] |
| ≤ 10 nM | COc1cc(C(=O)N2CC[C@@H](F)C2)cc(F)c1-c1nccc(Nc2cc(N3CCC[C@H](N)C3)c(-c3cnn(C(F)F)c3)cn2)n1 [Example 251, (4-(4-((4-((S)-3-aminopiperidin-1-yl)-5-(1-(difluoromethyl)-1H-pyrazol-4-yl)pyridin-2-yl)amino)pyrimidin-2-yl)-3-fluoro-5-methoxyphenyl)((R)-3-fluoropyrrolidin-1-yl)methanone] |
| ≤ 10 nM | COc1cc(F)cc(F)c1-c1nccc(Nc2cc(N3C[C@@H](C)C[C@H](N)C3)c(-c3cnn(C(F)F)c3)cn2)n1 [Example 210, N-(4-((3S,5S)-3-amino-5-methylpiperidin-1-yl)-5-(1-(difluoromethyl)-1H-pyrazol-4-yl)pyridin-2-yl)-2-(2,4-difluoro-6-methoxyphenyl)pyrimidin-4-amine hydrochloride] |
| ≤ 10 nM | COc1cccc(F)c1-c1nccc(Nc2cc(N3CC[C@@H](N)C3)c(-c3cnn(C4CCOCC4)c3)cn2)n1 [Example 96, (R)-N-(4-(3-aminopyrrolidin-1-yl)-5-(1-(tetrahydro-2H-pyran-4-yl)-1H-pyrazol-4-yl)pyridin-2-yl)-2-(2-fluoro-6-methoxyphenyl)pyrimidin-4-amine hydrochloride] |
| ≤ 10 nM | COc1cccc(F)c1-c1nccc(Nc2cc(N3CCC[C@H](N)C3)c(-c3cnn(CC(F)F)c3)cn2)n1 [Example 134, (S)-N-(4-(3-aminopiperidin-1-yl)-5-(1-(2,2-difluoroethyl)-1H-pyrazol-4-yl)pyridin-2-yl)-2-(2-fluoro-6-methoxyphenyl)pyrimidin-4-amine hydrochloride] |
| ≤ 10 nM | COc1cc(CN(C)C)cc(F)c1-c1nccc(Nc2cc(N3CCC[C@H](N)C3)c(-c3cnn(CC(F)(F)F)c3)cn2)n1 [Example 105, (S)-N-(4-(3-aminopiperidin-1-yl)-5-(1-(2,2,2-trifluoroethyl)-1H-pyrazol-4-yl)pyridin-2-yl)-2-(4-((dimethylamino)methyl)-2-fluoro-6-methoxyphenyl)pyrimidin-4-amine hydrochloride] |
| ≤ 10 nM | COc1cccc(F)c1-c1nccc(Nc2cc(N3CCC[C@H](N)C3)c(-c3ccc(N4CCOCC4)c(C)c3)cn2)n1 [Example 287, (S)-N-(4-(3-aminopiperidin-1-yl)-5-(3-methyl-4-morpholinophenyl)pyridin-2-yl)-2-(2-fluoro-6-methoxyphenyl)pyrimidin-4-amine hydrochloride] |
